Measurements from ChEMBL document CHEMBL5725536, “Multiple kinase pathway inhibitors” (2017).

How the values were obtained:
[1] = target: Tyrosine-protein kinase Lyn (Homo sapiens, UniProt P07948); test: (§1) Kinase Assays: A concentration of a drug that reduces the observed activity of an enzyme by 50%. An IC50 is not a true affinity constant and the specific value determined can vary depending on the particular assay used. Nonetheless the rank order of IC50 for a set of compounds will typically be similar from one assay to another. (The true affinity constant for an inhibitor binding to an enzyme, Ki, can of course also be used for the same purposes as described herein for IC50). With respect to the kinases that are targeted by the compounds disclosed herein, kinase activity can be assayed, without limitation, as consumption of ATP or as incorporation of phosphate into a substrate. For example, the assay used in Example 76 assesses consumption of ATP based on luminescent detection of ADP. As an alternate example, the assay used in Example 78 assesses incorporation of phosphate based on the radiologic detection of 33P-labeled artificial substrates. Myriad other kinase assays are known in the art many of which are commercially available either as a kit or a service and one of skill in the art will recognize their particular usefulness for generating IC50 data.
[2] = target: Proto-oncogene tyrosine-protein kinase Src (Homo sapiens, UniProt P12931); test: as §1
Sequence of Proto-oncogene tyrosine-protein kinase Src (P12931 2-536 limits assumed): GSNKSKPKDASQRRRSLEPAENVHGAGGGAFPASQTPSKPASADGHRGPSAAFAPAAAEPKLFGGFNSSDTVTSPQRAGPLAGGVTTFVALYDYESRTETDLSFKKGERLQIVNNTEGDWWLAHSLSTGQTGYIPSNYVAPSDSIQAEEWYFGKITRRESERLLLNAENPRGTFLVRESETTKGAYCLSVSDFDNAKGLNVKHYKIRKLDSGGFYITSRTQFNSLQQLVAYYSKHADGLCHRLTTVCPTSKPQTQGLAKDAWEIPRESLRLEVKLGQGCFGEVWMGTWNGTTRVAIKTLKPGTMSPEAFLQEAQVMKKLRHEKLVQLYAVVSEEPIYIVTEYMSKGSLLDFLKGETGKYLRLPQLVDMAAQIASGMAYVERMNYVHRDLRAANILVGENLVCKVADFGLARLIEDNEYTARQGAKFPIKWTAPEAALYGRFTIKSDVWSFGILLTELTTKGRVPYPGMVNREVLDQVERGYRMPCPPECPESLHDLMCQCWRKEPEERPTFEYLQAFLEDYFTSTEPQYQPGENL

Sequence of Tyrosine-protein kinase Lyn (P07948 whole entry): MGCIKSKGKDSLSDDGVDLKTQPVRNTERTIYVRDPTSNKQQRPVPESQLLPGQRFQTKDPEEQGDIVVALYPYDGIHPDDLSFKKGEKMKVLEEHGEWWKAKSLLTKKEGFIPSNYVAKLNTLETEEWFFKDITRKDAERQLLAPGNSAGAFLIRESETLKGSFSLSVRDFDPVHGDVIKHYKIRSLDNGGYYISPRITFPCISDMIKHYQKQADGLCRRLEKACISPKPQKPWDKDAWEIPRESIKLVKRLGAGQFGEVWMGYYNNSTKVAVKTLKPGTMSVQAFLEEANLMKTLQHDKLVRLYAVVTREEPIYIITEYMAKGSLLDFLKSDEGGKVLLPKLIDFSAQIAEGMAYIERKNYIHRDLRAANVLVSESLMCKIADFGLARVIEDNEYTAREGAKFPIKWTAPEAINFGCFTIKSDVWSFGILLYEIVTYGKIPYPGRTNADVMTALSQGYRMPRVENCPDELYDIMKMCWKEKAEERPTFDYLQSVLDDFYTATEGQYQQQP

Row | Compound | IC50 [1] [µM] | IC50 [2] [µM]
1 | CCN(CC)CCOc1ccc(Nc2cc3c(cn2)cc(C(C)C)c(=O)n3C)nc1 | > 5 | –
2 | CC(C)n1c(=O)c(-c2c(F)cccc2F)cc2cnc(Nc3ccc(F)cn3)cc21 | > 5 | > 5
